Experiments:
Ae. aegypti [1] = test: Complete Protection Time test on treated cloth (duration of protection); format: in vivo, Aedes aegypti; conditions: Dosage 0.75 mg/cm^2 on cloth; for Duration of protection against Ae. aegypti, M-3 Days Protection: subject M-3
Method: Bioassay for mosquito repellent activity: Repellency screening test for experimental chemicals were carried out to identify candidates that might be useful repellents. The repellent efficacy was compared to that of the standard repellent, DEET. Experimental compounds were assessed in one of two ways: (1) a range of concentration was evaluated to determine the minimum effective dosage (MED) which was the concentration threshold of where the repellent began to fail and allowed bites, or (2) a predetermined concentration of each repellent was applied to cloth and the activity was evaluated over several days (or in some cases months) (Katritzky, A. R., et al., Proc. Nat. Acad. Sci. (US), 105, 7359-7364 (2008); Katritzky, A. R., et al., Journal of Med. Entomol., 47: 924-938 (2010)). When conducting assays for repellency, a failure point was also predetermined for those measurements. Since experiments described herein used about 500 female mosquitoes per test, the failure point was set at 1% (equal to 5 bites) received during a test interval. From 3 to 5 volunteers participated in the screening of each set of chemicals. Complete Protection Time Test: Complete protection time (CPT) on treated cloth is a method of screening that is used to determine the repellent duration for experimental chemicals that have not been examined for safe use on humans. The standard repellent DEET was used as a positive control as a benchmark by which to compare the repellents. Experimental compounds were prepared in solution by combining 0.075 g of experimental chemical with 1 mL of acetone in a 7.1-mL screwtop glass vial. The same concentration level of DEET was also prepared in this way to serve as a control and a comparison for relative repellency. A 50 cm^2 (5 cm×10 cm) patch of muslin cloth was rolled lengthwise and placed into each of the glass vials and sealed with a screwtop so it soaked up the solution. Just prior to the experiment, the pieces of treated cloth were removed from the vials, affixed to card stock tabs (5 cm×3 cm) with staples, and hung with masking tape on a rack to dry and allowed the volatile acetone to evaporate. Similar to the MED tests, volunteers wore a latex glove over their hands, a nylon stocking over their arm, and then wrapped a plastic Velcro-sealed sleeve over their entire forearm with a 32 cm^2 (4 cm×8 cm) window cut-out to allow mosquitoes to bite through. Dried cloth patches were stretched across the window in the plastic sleeve and held in place with masking tape. Volunteers placed their sleeve-covered arms into a screened cage for a one minute period with approximately 500 female Ae. aegypti mosquitoes that had been preselected for host-seeking behavior using a draw box. A cloth patch that received a 1% bite through level, equal to 5 mosquitoes that bit out of 500 mosquitoes, was considered a failure at that concentration. If 0-4 bites were received, then the treated cloth was still considered to be repellent at that concentration. The duration was recorded as the number of days an experimental chemical received a passing result, with day 0 being the day the sample was first dried. […] As with the tests conducted to determine CPT, volunteers in the study provided informed consent (IRB protocol #636-2005). The protocol was approved by the University of Florida Human Use Institutional Review Board.

An. albimanus = test: Minimum Effective Dosage (MED) test on treated cloth, mosquito repellency; format: in vivo, Anopheles albimanus; conditions: Table 4; for An. albimanus Minimum Effective Dosage, Average: mean of 5 volunteers; for An. albimanus Minimum Effective Dosage, M4: subject M4; for An. albimanus Minimum Effective Dosage, M4 / An. albimanus Minimum Effective Dosage, M5 / An. albimanus Minimum Effective Dosage, M8 / An. albimanus Minimum Effective Dosage, M9 / An. albimanus Minimum Effective Dosage, M10: highest concentration 1.500 mg/cm^2; for An. albimanus Minimum Effective Dosage, M5: subject M5; for An. albimanus Minimum Effective Dosage, M8: subject M8; for An. albimanus Minimum Effective Dosage, M9: subject M9; for An. albimanus Minimum Effective Dosage, M10: subject M10
Ae. aegypti [2] = test: MED of varying molar ratios of 2 and DEET (synergistic activity); format: in vivo, Aedes aegypti; conditions: Table 6, molar ratio 2:DEET; for Ae. aegypti Minimum Effective Dosage, Average: mean of 3 volunteers; for Ae. aegypti Minimum Effective Dosage, M4: subject M4; for Ae. aegypti Minimum Effective Dosage, M4 / Ae. aegypti Minimum Effective Dosage, M5 / Ae. aegypti Minimum Effective Dosage, M8: highest dose 4.0 mg/cm2; for Ae. aegypti Minimum Effective Dosage, M5: subject M5; for Ae. aegypti Minimum Effective Dosage, M8: subject M8
Method: Minimum Effective Dosage (MED) Test: The MED bioassays on treated cloth were a method of screening to determine the minimum amount of a repellent needed to prevent bites. Experimental compounds were prepared in solution by combining 0.15 g of experimental chemical with 2 mL of acetone in a 7.1 mL screwtop glass vial. […] The standard N,N-diethyl-3-methylbenzamide (DEET) was also tested at the same concentration levels to serve as a control and a comparison for relative repellency. A 50 cm^2 (5 cm×10 cm) patch of muslin cloth was rolled lengthwise and placed into each of the glass vials and scaled with a screwtop so it soaked up the solution. Just prior to the experiment, the pieces of treated cloth were removed from the vials, affixed to card stock tabs (5 cm×3 cm) with staples, and hung with masking tape on a rack to dry and allow acetone to evaporate. Volunteers wore a latex glove over their hands, a nylon stocking over their arm, and then wrapped a plastic Velcro-sealed sleeve over their entire forearm with a 32 cm^2 (4 cm×8 cm) window cut-out to allow mosquitoes to bite through. The nylon stocking acted as a barrier between the dried cloth and the skin, an additional precaution with experimental compounds. Dried cloth patches were stretched across the window in the plastic sleeve and held in place with masking tape. Volunteers placed their sleeve-covered arms into a screened cage for a one minute period with approximately 500 female Ae. aegypti mosquitoes that had been preselected for host-seeking behavior using a draw box (Posey, K. H., and C. E. Schreck, Mosquito News, 41: 566-568 (1981)). […] The MED recorded was the lowest passing concentration level tested for the experimental compound. […] All human volunteers in the study provided informed consent to participate of a protocol approved by the University of Florida Human Use Institutional Review Board (IRB #636-2005).
Compound 2 was also evaluated with DEET for synergistic activity. Test samples were prepared at varying molar ratios of DEET: 2 (1:0-1:[…]) and the MED values were evaluated (Table 6).

Row | SMILES | Duration of protection, Proportion to DEET (Ae. aegypti [1]) | Duration of protection against Ae. aegypti, M-3 Days Protection (Ae. aegypti [1]) | An. albimanus Minimum Effective Dosage, Average (An. albimanus) | An. albimanus Minimum Effective Dosage, M4 (An. albimanus) | An. albimanus Minimum Effective Dosage, M5 (An. albimanus) | An. albimanus Minimum Effective Dosage, M8 (An. albimanus) | An. albimanus Minimum Effective Dosage, M9 (An. albimanus) | An. albimanus Minimum Effective Dosage, M10 (An. albimanus) | Ae. aegypti Minimum Effective Dosage, Average (Ae. aegypti [2]) | Ae. aegypti Minimum Effective Dosage, M4 (Ae. aegypti [2]) | Ae. aegypti Minimum Effective Dosage, M5 (Ae. aegypti [2]) | Ae. aegypti Minimum Effective Dosage, M8 (Ae. aegypti [2])
1 | CC1(C)C=Cc2c(CO)cccc2O1 [Compound 2] | 3.00 | 6 days | 0.234 mg/cm^2 | 0.047 mg/cm^2 | 0.375 mg/cm^2 | 0.187 mg/cm^2 | 0.375 mg/cm^2 | 0.187 mg/cm^2 | 0.0260 mg/cm^2 | 0.0156 mg/cm^2 | 0.0313 mg/cm^2 | 0.0313 mg/cm^2
2 | CCN(CC)C(=O)c1cccc(C)c1 [DEET, N,N-diethyl-3-methylbenzamide, reference compound] | 1.00 | 2 days | 0.025 mg/cm^2 | 0.011 mg/cm^2 | 0.047 mg/cm^2 | 0.023 mg/cm^2 | 0.023 mg/cm^2 | 0.023 mg/cm^2 | 0.0313 mg/cm^2 | 0.0313 mg/cm^2 | 0.0313 mg/cm^2 | 0.0313 mg/cm^2

— patent US9763444B2, “Compositions and methods for repelling blood-sucking and biting insects, ticks and mites” (The United States of America, as represented by the …, priority 2013, dated 2017)
